Patent publication US20080267941A1, “Nutrition Comprising Betaine Against Muscle Wasting” (N. V. Nutricia, priority 2005, published 2008)
Structures can show the parent of a compound that is named as a salt.

Test system: muscles of normal healthy rats
Assay: Resting muscle glycogen levels in rats after 6 weeks of oral betaine supplementation
Type: in vivo, rat
Details: for Resting glycogen levels in rats: male Wistar rats, 60 mg betaine in 1 ml vanilla custard orally each day for 6 weeks, *P < 0.05
Method: Experiments were performed on 8 male Wistar rats, 250-300 gram, which were housed individually, and had free access to water and food. All experimental procedures were approved by the Institutional Animal Care and Use Committee of the Netherlands, and complied with the principles of laboratory animal care. To determine the effect of oral betaine supplementation, the betaine group (n=4) received 1 ml vanilla custard each day in combination with 60 mg betaine (Sigma Aldrich), and the control group (n=4) received 1 ml vanilla custard. After 6 weeks of supplementation, the fast extensor digitorum longus, (EDL) and slow-(soleus) muscles were removed for further biochemical analysis and frozen in liquid nitrogen. Muscles were stored at −80° C. until analysis. Thereafter, muscles were freeze-dried during 3 days at −4° C. The freeze-dried muscles were crushed to powder, 400 μl 1M HCl was added to approximately 10 mg tissue and hydrolysed at 98° C. during 2 hours. After cooling down, 400 μl 1M NaOH was added to neutralize the samples and the samples were centrifuged 5 minutes at 13,000 rpm. Glycogen content was determined fluorimetrically by a glucose kit (Roche Diagnostics) and expressed as μmol glycosyl units·g^−1.

C[N+](C)(C)CC(=O)O [betaine, 1-carboxy-N,N,N-trimethylmethanaminium inner salt]
Resting glycogen levels in rats (EDL (fast extensor digitorum longus) muscle): 120 + 4* μmol glycosyl units/g tissue | Resting glycogen levels in rats (Soleus (slow) muscle): 137 ± 16* μmol glycosyl units/g tissue | glycogen content of the muscle cells (rats given vanilla custard containing betaine vs vanilla custard control): significantly increases
